The values below come from patent publication US20110288115A1, “TREATMENT OF VAGALLY-MEDIATED SPECTRUM DISORDERS” (AVMEDIS LLC, priority 2010, published 2011).

Experiment [1] relates to patient suffering from alcohol dependence. Put plainly: Treatment of alcohol abuse in a patient with alcohol dependence. It counts as in vivo. The following applies: person; 5 mg per day via nasal spray; within one month; patient report. As to the method: The patient is a person suffering from alcohol dependence and complaining of symptoms including abdominal pain, confusion, nausea and vomiting, neglecting to eat, and shaking in the morning. The patient is prescribed granisetron 5 mg per day taken via nasal spray.

In experiment [2] the test system is patient with panic disorder. The experiment can be described thus: Treatment of panic disorder in a patient with a 5-HT3 receptor antagonist. It is filed as in vivo. The following applies: patient previously treated largely unsuccessfully with SSRIs, MAOIs, tricyclic antidepressants, benzodiazepines; 8 mg/day to 30 mg/day for 5 to 60 days. As to the method:
A patient presents with symptoms including rapid heartbeat, perspiration, dizziness, dyspnea, trembling, uncontrollable fear, and hyperventilation, indicative of panic disorder. The patient has previously been treated, largely unsuccessfully, with selective serotonin reuptake inhibitors (SSRIs), monoamine oxidase inhibitors (MAOIs), tricyclic antidepressants, and benzodiazepines. The patient is treated for 5 to 60 days sequentially with ondansetron administered at a dose of 8 mg/day to 30 mg/day.

As to `CN1C2CCCC1CC(NC(=O)c1nn(C)c3ccccc13)C2` (stereo not drawn) [granisetron], in experiment [1], the control over drinking result is “able to exert control over their drinking”; the “improvement of symptoms (abdominal pain, confusion, nausea and vomiting, neglecting to eat, shaking in the morning)” value is on record as “all of the above symptoms have improved considerably”.

Take `Cc1nccn1CC1CCc2c(c3ccccc3n2C)C1=O` (stereo not drawn) [ondansetron, 1,2,3,9-tetrahydro-9-methyl-3-[(2-methyl-1H-imidazol-1-yl]methyl]-4H-carbazol-4-one]: the “amelioration of panic disorder (severity and frequency of panic attacks and their symptoms)” value in experiment [2] was “long-lasting amelioration of panic disorder”.
